We go through five molecules from patent US20250297321A1, “METHOD FOR DETECTING METABOLIC REPROGRAMING OF CANCER TOWARDS FATTY ACIDS METABOLISM” (INSTITUT NATIONAL DE LA SANTE ET DE LA RECHERCHE MEDICALE, priority 2022, published 2025).

Holding throughout (format): cell-based, human
Assay [1] has as its system MD901 cells. Kind of assay: Induction of cell death in MD901 cells. As for the experimental part: (§1) DLBCL cells were harvested and washed twice with cold PBS. Cells were resuspended in 1× binding buffer containing Annexin V/APC (BD Biosciences Pharmingen) and 4′,6-diaminidino-2-phenylindole (DAPI, Molecular Probes) for 15 min at room temperature. The samples were subjected to cytometric analysis with a MACSQuant Analyzer 10 Flow Cytometer (Miltenyi Biotec) and the data were analyzed using the Flowjo v10.2 software.
(§2) Cell viability was assessed using trypan blue dye exclusion.

Assay [2] relates to SUDHL-4 cells. Kind of assay: Induction of cell death in SUDHL-4 cells. The note with it: glycolytic BCR SUDHL-4 cells. As for the experimental part:
as §1, §2

Assay [3] concerns Huh7 cells. Kind of assay: Huh7 cell death, DAPI staining. To be noted: RelB overexpressing Huh7, palmitic acid 50 μM, 0% FBS, 48 h, in presence of 4-BCA (FIG. 4C). As for the experimental part: Huh7 HCC cell line and genetically engineered derivatives targeting RelB expression levels (knock-down of RelB expression: Huh7 shRNA human RelB & Huh7 shRNA control; RelB overexpression: Huh7 cDNA human WT Rel & Huh7 cDNA control) were grown in MEM culture medium supplemented with 10% of fetal bovine serum (FBS), 100 U/mL penicillin, and […] streptomycin, 25 mM Hepes Buffer, 1 mM of sodium pyruvate, 1% of non-essential amino-acids (NEAA), which stands for standard culture medium. Huh7 genetically engineered cell lines were only used at passage P1 to P6. Cells passaging occurred twice a week to maintain a condition of 75% confluence. To evaluate the effect of fatty acid treatment, […] acid bovine serum albumin.
Huh7 cells were stained with 4′, 6-diamidino-2-phenylindole (DAPI). Then, images were acquired for DAPI positive cells by fluorescent microscopy (magnification: 20×) on at least 6 different fields combined with one acquisition under white light to quantify the total number of cells in the same field. Quantification was carried out by image J software. Cell death is expressed in percentage (number of DAPI positive cells/total number of cells per field)*100).

For assay [4], the system named is OCILY19 cells. Kind of assay: Induction of cell death in OCILY19 cells. As for the experimental part:
as §1, §2

The test system of assay [5] is Huh7 cells. Description: Huh7 cell growth (RelB overexpressing cells). To be noted: 4-BCA 10 μM, 48 h, vs control cells (FIG. 4B). As for the experimental part: Huh7 HCC cell line and genetically engineered derivatives targeting RelB expression levels (knock-down of RelB expression: Huh7 shRNA human RelB & Huh7 shRNA control; RelB overexpression: Huh7 cDNA human WT Rel & Huh7 cDNA control) were grown in MEM culture medium supplemented with 10% of fetal bovine serum (FBS), 100 U/mL penicillin, and […] streptomycin, 25 mM Hepes Buffer, 1 mM of sodium pyruvate, 1% of non-essential amino-acids (NEAA), which stands for standard culture medium. Huh7 genetically engineered cell lines were only used at passage P1 to P6. Cells passaging occurred twice a week to maintain a condition of 75% confluence. To evaluate the effect of fatty acid treatment, Huh7 cells cultured in FBS-free medium for hours were treated for 16 hours in FBS-free medium supplemented with various concentration (50 to 300 μM) of either oleic or palmitic acid along with 1% of free fatty acid bovine serum albumin.
as §2

For assay [6], the system named is MD901 DLBCL cell line. Description: Mitochondrial transmembrane potential (TMRM) in MD901. To be noted: RelB knocked-down MD901, TMRM low (FIG. 8B). As for the experimental part:
For determination of mitochondrial transmembrane potential (ΔΨm), cells were stained with 100 nM of Tetramethyl rhodamine methyl ester (TMRM) (Molecular Probes) in RPMI-1640 Glutamax medium for 30 min at room temperature. Cells were evaluated by cytometric analysis as above. During apoptosis, the permeabilization of the mitochondrial outer membrane leads to loss of mitochondrial transmembrane potential (ΔΨm) corresponding to TMRM low/DAPI neg cells.

Assay [7] concerns MD901 DLBCL cell line. Kind of assay: Annexin V/DAPI apoptosis assay in MD901. The note with it: for Apoptosis by Annexin V/DAPI staining: MD901 (FIG. 8A); for Drug-induced apoptosis upon RelB-expression knockdown: RelB knocked-down MD901 vs shRNA control (FIG. 8A). As for the experimental part:
MD901 and SUDHL-4 DLBCL cell lines were obtained from Jos6 Angel Martinez-Climent (Centro de Investigación Médica Aplicada, Pamplona, Spain).
as §1

Regarding `O=C(O)/C=C/CBr` [4-BCA, 4-bromocrotonic acid], the “Cell death upon inhibition of fatty acid oxidation” value in assay [1] (MD901, as soon as 24 hours post-treatment (FIG. 9A)) is “massive and rapid cell death”; in assay [4] (Oci-Ly19, as soon as 24 hours post-treatment (FIG. 10A)) it was “massive and rapid cell death”. Moreover, the “Sensitivity to 4-BCA treatment” value in assay [2] (compared with MD901 / Oci-Ly19 (not shown)) is given as “much less sensitive”. Further, the “Cell death (DAPI positive cells), RelB pro-survival effect against palmitate” value in assay [3] was “RelB pro-survival effect was almost completely abolished”. Moreover, the “Cell growth in RelB overexpressing Huh7 cells” value in assay [5] was “the RelB-dependent increase in Huh7 cell number was lost and cell growth rate was even lowered compared to the control cells”.

As to `C=C1C(=O)OC(CCCCCCCC)C1C(=O)O` (stereo not shown) [C75], the “Cell death upon inhibition of fatty acid synthesis” value in assay [1] (MD901, as soon as 24 hours post-treatment (FIG. 11A)) was “massive and rapid cell death”; in assay [4] (Oci-Ly19, as soon as 24 hours post-treatment (FIG. 12A)), “massive and rapid cell death”. For the same molecule, the “Sensitivity to C75” value in assay [2] (compared with MD901 / Oci-Ly19) is recorded as “much less sensitive”.

As for `CN(C)C(=N)N=C(N)N` [Metformin, metformin], in assay [6], the “Loss of mitochondrial potential upon RelB-expression knockdown” value is on record as “increase in loss of mitochondrial potential”. In addition, in assay [7], the “Apoptosis by Annexin V/DAPI staining” value was “significant apoptosis” and the “Drug-induced apoptosis upon RelB-expression knockdown” value is recorded as “markedly increased”. For the same molecule, the “Cell death induced by metformin upon knockdown of RelB expression” value in assay [7] (RelB knocked-down MD901) was “even more pronounced cell death”.

As to `COc1cc(Nc2ncc(F)c(Nc3ccc4c(n3)NC(=O)C(C)(C)O4)n2)cc(OC)c1OC` [R406], in assay [7] (MD901 (FIG. 6A)), the “Sensitivity to R406-induced apoptosis” value was “insensitive”.

B1: Kidrolase®: L-asparaginase; catalyzes the hydrolysis of asparagine and glutamine into aspartate and glutamate (protein, UniProt P00805 23-348, looked up)
L-asparaginase 2: LPNITILATGGTIAGGGDSATKSNYTVGKVGVENLVNAVPQLKDIANVKGEQVVNIGSQDMNDNVWLTLAKKINTDCDKTDGFVITHGTDTMEETAYFLDLTVKCDKPVVMVGAMRPSTSMSADGPFNLYNAVVTAADKASANRGVLVVMNDTVLDGRDVTKTNTTDVATFKSVNYGPLGYIHNGKIDYQRTPARKHTSDTPFDVSKLNELPKVGIVYNYANASDLPAKALVDAGYDGIVSAGVGNGNLYKSVFDTLATAAKTGTAVVRSSRVPTGATTQDAEVDDAKYGFVASGTLNPQKARVLLQLALTQTKDPQQIQQIFNQY
Consider B1, for which the “Loss of mitochondrial potential upon RelB-expression knockdown” value in assay [6] is “increase in loss of mitochondrial potential”. Also, in assay [7], the “Apoptosis by Annexin V/DAPI staining” value is “significant apoptosis” and the “Drug-induced apoptosis upon RelB-expression knockdown” value is “markedly increased”.
